Results taken from ChEMBL document CHEMBL1201862, “PubChem BioAssay data set” (2004).
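48-hour exposure; five concentrations; linearly interpolated endpoints. GI50 marks 50% less growth.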 Calls of active or inactive are those of the source. Cut-off read from the data, not from the text of the source: active = GI50 up to about 1.1 µM and inactive = higher.

Legend:
Experiment in all cases: inhibition of tumour cell growth, NCI panel, 48 h
786-0 = test system: 786-0
A498 = test system: A498
A549 = test system: A549
ACHN = test system: ACHN
CCRF-CEM = test system: CCRF-CEM
COLO 205 = test system: COLO 205
DLD-1 = test system: DLD-1
DMS-114 = test system: DMS-114
DMS-273 = test system: DMS-273
EKVX = test system: EKVX
HCC 2998 = test system: HCC 2998
HCT-116 = test system: HCT-116
HL-60 = test system: HL-60
HOP-18 = test system: HOP-18
HOP-92 = test system: HOP-92
HT-29 = test system: HT-29
IGROV-1 = test system: IGROV-1
K562 = test system: K562
KM-20L2 = test system: KM-20L2
KM12 = test system: KM12
LOX IMVI = test system: LOX IMVI
LXFL 529 = test system: LXFL 529
M14 = test system: M14
M19-MEL = test system: M19-MEL
MOLT-4 = test system: MOLT-4
NCI-H23 = test system: NCI-H23
NCI-H460 = test system: NCI-H460
NCI-H522 = test system: NCI-H522
OVCAR-3 = test system: OVCAR-3
OVCAR-4 = test system: OVCAR-4
OVCAR-5 = test system: OVCAR-5
OVCAR-8 = test system: OVCAR-8
RPMI-8226 = test system: RPMI-8226
RXF 393 = test system: RXF 393
SF-268 = test system: SF-268
SF-295 = test system: SF-295
SF-539 = test system: SF-539
SK-MEL-28 = test system: SK-MEL-28
SK-MEL-2 = test system: SK-MEL-2
SK-MEL-5 = test system: SK-MEL-5
SK-OV-3 = test system: SK-OV-3
SN12C = test system: SN12C
SNB-19 = test system: SNB-19
SNB-75 = test system: SNB-75
SNB-78 = test system: SNB-78
SR = test system: SR
SW-620 = test system: SW-620
TK-10 = test system: TK-10
U-251 = test system: U-251
UACC-257 = test system: UACC-257
UACC-62 = test system: UACC-62
UO-31 = test system: UO-31
XF498 = test system: XF498
HCT-15 = test system: HCT-15
HOP-62 = test system: HOP-62
Malme-3M = test system: Malme-3M
NCI-H226 = test system: NCI-H226

## CO[C@@H]1C=C[C@@]23c4cc5c(cc4C(=O)O[C@H]2CN(C)[C@H]3C1)OCO5
786-0
  GI50: > 100 µM (inactive)
A498
  GI50: > 100 µM (inactive)
A549
  GI50: > 100 µM (inactive)
ACHN
  GI50: > 100 µM (inactive)
CCRF-CEM
  GI50: > 100 µM (inactive)
COLO 205
  GI50: > 100 µM (inactive)
DLD-1
  GI50: > 100 µM (inactive)
DMS-114
  GI50: > 100 µM (inactive)
DMS-273
  GI50: > 100 µM (inactive)
EKVX
  GI50: > 100 µM (inactive)
HCC 2998
  GI50: > 100 µM (inactive)
HCT-116
  GI50: > 100 µM (inactive)
HL-60
  GI50: > 100 µM (inactive)
HOP-18
  GI50: > 100 µM (inactive)
HOP-92
  GI50: > 100 µM (inactive)
HT-29
  GI50: > 100 µM (inactive)
IGROV-1
  GI50: > 100 µM (inactive)
K562
  GI50: > 100 µM (inactive)
KM-20L2
  GI50: > 100 µM (inactive)
KM12
  GI50: > 100 µM (inactive)
LOX IMVI
  GI50: > 100 µM (inactive)
LXFL 529
  GI50: > 100 µM (inactive)
M14
  GI50: > 100 µM (inactive)
M19-MEL
  GI50: > 100 µM (inactive)
MOLT-4
  GI50: > 100 µM (inactive)
NCI-H23
  GI50: > 100 µM (inactive)
NCI-H460
  GI50: > 100 µM (inactive)
NCI-H522
  GI50: > 100 µM (inactive)
OVCAR-3
  GI50: > 100 µM (inactive)
OVCAR-4
  GI50: > 100 µM (inactive)
OVCAR-5
  GI50: > 100 µM (inactive)
OVCAR-8
  GI50: > 100 µM (inactive)
RPMI-8226
  GI50: > 100 µM (inactive)
RXF 393
  GI50: > 100 µM (inactive)
SF-268
  GI50: > 100 µM (inactive)
SF-295
  GI50: > 100 µM (inactive)
SF-539
  GI50: > 100 µM (inactive)
SK-MEL-28
  GI50: > 100 µM (inactive)
SK-MEL-2
  GI50: > 100 µM (inactive)
SK-MEL-5
  GI50: > 100 µM (inactive)
SK-OV-3
  GI50: > 100 µM (inactive)
SN12C
  GI50: > 100 µM (inactive)
SNB-19
  GI50: > 100 µM (inactive)
SNB-75
  GI50: 81.7 µM (inactive)
SNB-78
  GI50: > 100 µM (inactive)
SR
  GI50: > 100 µM (inactive)
SW-620
  GI50: > 100 µM (inactive)
TK-10
  GI50: > 100 µM (inactive)
U-251
  GI50: > 100 µM (inactive)
UACC-257
  GI50: > 100 µM (inactive)
UACC-62
  GI50: > 100 µM (inactive)
UO-31
  GI50: > 100 µM (inactive)
XF498
  GI50: > 100 µM (inactive)

## Nc1ccccc1C(=O)C(Br)C(Br)c1ccc2c(c1)OCO2 (stereo not drawn)
786-0
  GI50: 31 µM (inactive)
A498
  GI50: 24.4 µM (inactive)
A549
  GI50: 20.6 µM (inactive)
ACHN
  GI50: 18.2 µM (inactive)
CCRF-CEM
  GI50: 26 µM (inactive)
COLO 205
  GI50: 14.2 µM (inactive)
DLD-1
  GI50: 33.6 µM (inactive)
DMS-114
  GI50: 18.2 µM (inactive)
DMS-273
  GI50: 15.1 µM (inactive)
EKVX
  GI50: 21.3 µM (inactive)
HCC 2998
  GI50: 20.3 µM (inactive)
HCT-116
  GI50: 16.4 µM (inactive)
HCT-15
  GI50: 20.8 µM
HL-60
  GI50: 40.7 µM (inactive)
HOP-18
  GI50: 16.7 µM (inactive)
HOP-62
  GI50: 21.8 µM (inactive)
HOP-92
  GI50: 15 µM (inactive)
HT-29
  GI50: 17.3 µM (inactive)
IGROV-1
  GI50: 28.6 µM (inactive)
K562
  GI50: 31.1 µM (inactive)
KM-20L2
  GI50: 17.2 µM (inactive)
KM12
  GI50: 18 µM (inactive)
LOX IMVI
  GI50: 14 µM (inactive)
LXFL 529
  GI50: 16.7 µM (inactive)
M14
  GI50: 18.4 µM (inactive)
M19-MEL
  GI50: 17.8 µM (inactive)
MOLT-4
  GI50: 25.1 µM (inactive)
Malme-3M
  GI50: 18.4 µM (inactive)
NCI-H226
  GI50: 20 µM (inactive)
NCI-H23
  GI50: 19.9 µM (inactive)
NCI-H460
  GI50: 18.6 µM (inactive)
NCI-H522
  GI50: 18.5 µM (inactive)
OVCAR-3
  GI50: 16.7 µM (inactive)
OVCAR-4
  GI50: 27.4 µM (inactive)
OVCAR-8
  GI50: 27.6 µM (inactive)
RPMI-8226
  GI50: 33.7 µM (inactive)
RXF 393
  GI50: 19.7 µM (inactive)
SF-268
  GI50: 26.4 µM (inactive)
SF-295
  GI50: 27.6 µM (inactive)
SF-539
  GI50: 18.4 µM (inactive)
SK-MEL-28
  GI50: 23.4 µM (inactive)
SK-MEL-2
  GI50: 16.9 µM (inactive)
SK-OV-3
  GI50: 28.6 µM (inactive)
SN12C
  GI50: 24.9 µM (inactive)
SNB-19
  GI50: 26.1 µM (inactive)
SNB-75
  GI50: 20.9 µM (inactive)
SNB-78
  GI50: 24.3 µM (inactive)
SR
  GI50: 46.1 µM (inactive)
SW-620
  GI50: 32.6 µM (inactive)
TK-10
  GI50: 27.4 µM (inactive)
U-251
  GI50: 21.6 µM (inactive)
UACC-257
  GI50: 19.1 µM (inactive)
UACC-62
  GI50: 16.8 µM (inactive)
UO-31
  GI50: 15.5 µM (inactive)
XF498
  GI50: 16.7 µM (inactive)

## CCOc1ccc(/C=C(\Cl)c2ccc(OC)c(OC)c2)cc1
786-0
  GI50: > 100 µM (inactive)
A498
  GI50: 27.6 µM (inactive)
A549
  GI50: 35.2 µM (inactive)
ACHN
  GI50: 36.4 µM (inactive)
CCRF-CEM
  GI50: 37.1 µM (inactive)
COLO 205
  GI50: 48.2 µM (inactive)
DLD-1
  GI50: 22.5 µM (inactive)
DMS-114
  GI50: 26.6 µM (inactive)
DMS-273
  GI50: 22 µM (inactive)
EKVX
  GI50: 80.4 µM (inactive)
HCC 2998
  GI50: 41.6 µM (inactive)
HCT-116
  GI50: 32.6 µM (inactive)
HCT-15
  GI50: 20.9 µM
HL-60
  GI50: 21.8 µM (inactive)
HOP-18
  GI50: 57.9 µM (inactive)
HOP-62
  GI50: 98.6 µM (inactive)
HOP-92
  GI50: 55.3 µM (inactive)
HT-29
  GI50: 16.6 µM (inactive)
IGROV-1
  GI50: 84.9 µM (inactive)
K562
  GI50: 30.8 µM (inactive)
KM-20L2
  GI50: 16.7 µM (inactive)
LXFL 529
  GI50: 35.9 µM (inactive)
M14
  GI50: 25.3 µM (inactive)
M19-MEL
  GI50: 37.4 µM (inactive)
MOLT-4
  GI50: 26.2 µM (inactive)
Malme-3M
  GI50: 58.9 µM (inactive)
NCI-H226
  GI50: 33.1 µM (inactive)
NCI-H23
  GI50: 19.3 µM (inactive)
NCI-H522
  GI50: 19.2 µM (inactive)
OVCAR-4
  GI50: 33.3 µM (inactive)
OVCAR-8
  GI50: 63.8 µM (inactive)
RPMI-8226
  GI50: 20 µM (inactive)
RXF 393
  GI50: 12.4 µM (inactive)
SF-268
  GI50: 87.3 µM (inactive)
SF-295
  GI50: 80.9 µM (inactive)
SF-539
  GI50: > 100 µM (inactive)
SK-MEL-28
  GI50: 38.5 µM (inactive)
SK-MEL-5
  GI50: 26.5 µM (inactive)
SK-OV-3
  GI50: 77.1 µM (inactive)
SN12C
  GI50: 60.3 µM (inactive)
SNB-19
  GI50: > 100 µM (inactive)
SNB-75
  GI50: > 100 µM (inactive)
SNB-78
  GI50: 89.5 µM (inactive)
SR
  GI50: 12.2 µM (inactive)
SW-620
  GI50: 50.6 µM (inactive)
U-251
  GI50: > 100 µM (inactive)
UACC-257
  GI50: 21 µM (inactive)
UACC-62
  GI50: 20.5 µM (inactive)
UO-31
  GI50: 28.7 µM (inactive)
XF498
  GI50: > 100 µM (inactive)
